# Reference: US8709454B2, “Combination of a microorganism and a phytosphingosine derivative, composition, methods of use” (L'Oreal, priority 2009, dated 2014)
# Legend:
# Assay type in all cases: cell-based
# Conditions in all cases: topical 50 μl, 6 hours after treatment, related to G3PDH messenger
# [1] = test system: cytokeratin 6B (K6B) gene; assay: RT-qPCR gene expression in Episkin reconstructed epidermis: cytokeratin 6B
# Description: (§1) The effects of the following four compositions were tested on the differentiation of Episkin® reconstructed epidermis. • A: formulation support (ethyl alcohol (3%) and water (97%)), • B: lysate (ethyl alcohol (3%), water (87%), lysate (10%)), • C: phytosphingosine salicylate (ethyl alcohol (3%), water (96.998%), phytosphingosine salicylate (0.002%)), and • D: combination in accordance with the invention=(0.002% phytosphingosine salicylate+10% lysate+ethyl alcohol (3%)+water (86.998%)).
# (§2) J6 Episkin® reconstructed epidermis were placed in 12-well plates containing 2 ml of a maintenance medium and cultured at 37° C. and 5% CO2 for 24 hours. […]
# (§3) These effects were characterized by analysing the expression of the cytokeratin 6B (K6B), cytokeratin 10 (K10) and involucrin (INV) genes using a real-time PCR method (quantitative PCR, qPCR) 6 hours after treatment.
# (§4) The expression of the markers selected was evaluated by RT-qPCR on the messenger RNA extracted from the Episkin® reconstructed epidermis of each treatment (the duplicates were pooled before RNA extraction) 6, 24 and 48 hours after treatment. […]
# (§5) The incorporation of fluorescence into the amplified DNA is measured continuously during the PCR cycles. This system makes it possible to obtain curves of the fluorescence measurement as a function of the PCR cycles and thus to evaluate a relative expression value for each marker. […]
# [2] = test system: cytokeratin 10 (K10) gene; assay: RT-qPCR gene expression in Episkin reconstructed epidermis: cytokeratin 10
# Description: as §1, §2, §3, §4, §5
# involucrin (INV) gene = assay: RT-qPCR gene expression in Episkin reconstructed epidermis: involucrin
# Description: as §1, §2, §3, §4, §5
substance,measurement,setting,value
phytosphingosine salicylate [Composition C],K6B expression,[1],158 % of the untreated control
same,K10 expression,[2],122 % of the untreated control
same,INV expression,involucrin (INV) gene,146 % of the untreated control
